Results on two substances are retold here after US12061202B2, “Compositions and methods for bioluminescent detection using multifunctional probes” (Promega Corporation, priority 2019, dated 2024).

The test system of one experiment is Daudi cells. Nature of the experiment: Antibody dependent cellular cytotoxicity (ADCC), labeled Daudi cells co-cultured with PBMC. The note with it: Daudi labeled with 1 μM Labeling Probe; PBMC E:T 20:1; 5 hours at 37° C. The experiment is classed as cell-based. As for the experimental part:
As shown in FIGS. 3A-3C, experiments were conducted to test antibody dependent cellular cytotoxicity (ADCC) in Daudi (FIGS. 3A-3B) and SKBR3 (FIG. 3C) cells labeled with the bifunctional probes of the present disclosure. Daudi and SKBR3 cells were labeled with 1 μM and 10 μM Labeling Probe respectively and co-cultured with peripheral blood mononuclear cells (PBMC; Cellular Technologies Limited) at an E:T ratio of 20:1 (100,000 effector to 5,000 target) with indicated antibody titrations for 5 hours at 37° C. prior to Nano-Glo® Luciferase Assay Substrate addition. […] Curves in FIGS. 3B and 3C were generated following assay background subtraction (RLU [Target cells+Effector cells+Detection Components]−RLU [Media+Detection Components]) using a four parametric variable slope algorithm in Prism.

The test system of the next experiment is Raji target cells. Nature of the experiment: Bispecific T-cell engager (BiTE) target cell lysis, labeled Raji target cells with TALL-104 effector cells. The experiment is classed as cell-based. The conditions noted are these: Raji (1.67 μM Labeling probe); TALL-104 effector 2.5:1; 6 hours at 37° C. As for the experimental part:
BiTEs are a class of artificial bispecific monoclonal antibodies that are investigated for the use as anti-cancer drugs as they are used to direct the T cells' cytotoxic activity to target cells (e.g., cancer cells). As shown, Raji target cells (1.67 μM Labeling probe) and TALL-104 effector cells were co-cultured at 2.5:1 ratio (12,500 effector to 5,000 target) in a 96-well assay plate. Bincyto was titrated at indicated concentrations and assay plate was incubated for 6 hours at 37° C. prior to Nano-Glo® Luciferase Assay Substrate addition. Curves were generated following assay background subtraction as described in above. […] S/B=BiTE/no BiTE. % antibody dependent target cell lysis=100×(RLU [target+ effector+antibody]−RLU [target+ effector])/(RLU [target+ effector+digitonin]−RLU [target+ effector]).

“Rituximab: antibody titrated in ADCC assay on Daudi cells” came in with a concentration giving a half-maximal response (EC50) with Daudi cells of 6.8 ng/mL.
In the experiment with Raji target cells, “Bincyto: bispecific T-cell engager (BiTE) titrated on Raji target cells with TALL-104 effector cells” displayed an EC50 of 5.38 µM.
